Like-named read-outs stand apart in the source and are kept apart here.
Key:
[1] = Liquid stability / solubility of high-concentration EMES in water with C8 amine oxide; conditions: 25% EMES, about 2% C8 AO; FIG. 6b
Experimental: Similar approaches were taken for examining the impact of increasing EMES concentration on liquid stability (i.e., examining the solubility of the surfactant in solution at a given concentration), and the ability of hydrotropes to improve EMES solubility. Specifically, samples of EMES in water were prepared at different concentrations and observed as described above for any evidence of instability or poor solubility.

[2] = Storage stability (Pass/Fail) of base liquid detergent formulation with 9.5% EMES plus candidate hydrotrope; assay type: physicochemical; set-up: key: a sample was said to “Pass” if it remained a clear isotropic liquid at the indicated challenge temperature; a sample was said to “Fail” if it showed any of the above-described evidence of instability or insolubility
[3] = Rheology, 40 mm circular plate rheometer (flowability/pumpability); assay type: physicochemical; conditions: agent at about 5% to about 8%; results not shown
Experimental: A solution of 35% EMES+7% C8 amine oxide in water was prepared as described in the foregoing examples. […] The rheology of the solution was then tested using a 40 mm circular plate rheometer. A conditioning step was performed which brought the plate to 25° C., and a pre-shear step was carried out at 0.7958 Pa for 30 sec, and then the device was equilibrated until it reached 0 velocity. Then the main continuous ramp step began on the solution, which ran for 1 minute, and the shear stress was increased from 0.1 to 250 Pa. A total of 15 data points were collected, and the device remained at 25° C. the entire time. […] Solutions of about 40% or more EMES, however, required a slightly higher amine oxide content to remain flowable and pumpable, but the shear stress necessary was inordinately high. Therefore, for applications in which it may be desirable to pump the surfactant formulation, it is preferable to use 35% or lower EMES in the formulation.
We also evaluated whether or not inclusion of one or more additional components in the solution would improve the pumpability of high concentration EMES formulations. Specifically, ethanol or glycerine at about 5% to about 8% were included in formulations containing 35% EMES/7% C8 amine oxide.

[4] = Interfacial surface tension / CMC (detergency), pendant drop method, Kruss DSA100; assay type: physicochemical; conditions: 0 to 250 ppm in water; FIG. 1
Description: First, we addressed the fact that MES has typically been thought of as a component that can show poor detergency. A surfactant's cleaning performance (i.e., detergency) can be measured directly by an examination of its interfacial tension (IFT) as a function of its critical micelle concentration (CMC, the concentration where the surfactant's monomers arrange themselves in a spherical shape so that their hydrophobic tails can trap oil). We therefore wanted to examine the suitability of various surfactants, including various types of MES, for use in reducing surface tension (i.e., detergency) over various surfactant concentrations. Surfactants were titrated in water at concentrations from 0 to 250 ppm (which is typical of “in use” conditions for surfactant formulations in household laundry methods), and the interfacial surface tension of these solutions was measured as a function of concentration using the pendant drop method on a Kruss DSA100 drop shape analyzer. […] As one of ordinary skill will readily understand, other tensiometric methods of determining interfacial surface tension can also be used, for example using a Du Nouy ring, drop volume, or bubble tensiometer; suitable instrumentation and methods for measuring surface tension using such approaches are well-known in the art. […]

[5] = material 2.00 % w/v in base detergent with 9.5% EMES, 1 week
[6] = material 2.00 % w/v in base detergent with 9.5% EMES, 3 cycles, -20° C.
[7] = material 2.00 % w/v in base detergent with 9.5% EMES, 12 weeks
[8] = material 2.00 % w/v in base detergent with 9.5% EMES, 52 weeks

Compound	Freeze/Thaw storage [2, 6]	Room Temp. storage [2, 8]	40° F. storage [2]	105° F. storage [2]	125° F. storage [2]	other results
CCCCCCCC[N+](C)(C)[O-] [C8 AO, octyl dimethyl amine oxide]	–	–	–	–	–	appearance of EMES solution with hydrotrope [1]: nearly clear, isotropic solution
CCO [Ethanol, Ethyl alcohol, reference compound]	Pass	Pass	–	–	–	125° F. storage [2, 5]: Pass; 40° F. storage [2, 7]: Fail; 105° F. storage [2, 7]: Pass; flowability of 35% EMES/7% C8 amine oxide with added agent [3]: worse
CCCCCCCCCC[N+](C)(C)[O-] [Genamino x DC40, Decyl dimethyl amine oxide]	Pass	Pass	Fail	Pass	Pass	–
CC(O)CO (stereo not shown) [Propylene glycol, Propylene glycol (1,2-propane diol), reference compound]	Pass	Pass	–	–	–	125° F. storage [2, 5]: Pass; 40° F. storage [2, 7]: Fail; 105° F. storage [2, 7]: Pass
CCCCCCCC[N+](C)(C)[O-] [Synthetic C8 3853-01, Octyl dimethyl amine oxide]	Pass	Pass	Pass	Pass	Pass	–
C[N+](C)(C)CC(=O)O [Tomamine LH, Betaine]	Pass	Pass	Fail	Pass	Pass	–
CCCCCCCCCCCC(=O)OCCOCCOCCOCCOCCOCCOCCOCCOCCOCCOCCOCCOCCOCCOCCOCCOCCOCCOCCOCCOCC(OCCOCCOCCOCCOCCOCCOCCOCCOCCOCCOCCOCCOCCOCCOCCOCCOCCOCCOCCOCCO)C1OCC(OCCOCCOCCOCCOCCOCCOCCOCCOCCOCCOCCOCCOCCOCCOCCOCCOCCOCCOCCOCCO)C1OCCOCCOCCOCCOCCOCCOCCOCCOCCOCCOCCOCCOCCOCCOCCOCCOCCOCCOCCOCCO (stereo not shown) [Tween 20, Polysorbate 20]	–	–	Fail	Pass	Pass	Freeze/Thaw storage [2]: Pass; Room Temp. storage [2]: Pass
Akkylglucoside [AG6206]	Pass	Pass	Fail	Pass	Pass	–
Glycerine (propane 1,2,3-triol) [reference compound]	–	–	Fail	Pass	Pass	Freeze/Thaw storage [2]: Pass; Room Temp. storage [2]: Pass; flowability of 35% EMES/7% C8 amine oxide with added agent [3]: worse
Lauramine oxide [Ammonyx LO]	Pass	Pass	Fail	Pass	Pass	–
Methyl ester sulfonate [MES]	–	–	–	–	–	critical micelle concentration (CMC), compared with LAS, SLES [4]: reaches its CMC the quickest; interfacial tension (IFT), compared with LAS, SLES [4]: lowest IFT at each concentration measured
Sodium xylene sulfonate [reference compound]	–	–	Fail	Pass	Pass	Freeze/Thaw storage [2]: Pass; Room Temp. storage [2]: Pass

From patent publication US9222059B2, “Cleaning formulations with improved surfactant solubility and methods of production and use thereof” (The Sun Products Corporation, priority 2011, dated 2015)
